According to article PMC11375702, “Early Preclinical Studies of Ergosterol Peroxide and Biological Evaluation of Its Derivatives” (ACS Omega, 2024):

How the values were obtained:
[1] = Maximum tolerated dose (MTD) study, single oral dose; assay type: in vivo, mouse; settings: for Gross pathology, External Abnormalities: No Abnormality Detected (number of mice) / Gross pathology, Internal Abnormalities: No Abnormality Detected (number of mice): 6 mice examined
Description: The study was conducted according to published and acceptable experimental conditions reported.[53] Animal protocols approved by LSU#IACUCAM21065 and UCC# 037–2021–16–01-PHA-IBC. Briefly, male and female Balb/c mice were given a single oral dose administration of ergosterol peroxide to C57BL/6 female and male mice (5–8 weeks old), followed by 7 days postdose observations. Toxicity is defined as a 20% loss of body weight. The study comprised three groups for a toxicity phase including: one control and two EP-treated groups (G2 and G3), having 6 mice/sex/group. Mice from groups G2 (300 mg/kg BW) and G3 (500 mg/kg BW) were administered an EP uniform suspension (light yellow), once by oral gavage. The mice from the control group (G1) received a 1% v/v Tween 80 and 0.5% w/v NaCMC in the RO water suspension. The dosing volume was kept constant at 10 mL/kg for each mouse. Then, animals were euthanized, and organs (liver, lung, heart, and kidney) were collected to check global signs of toxicity. Parameters evaluated included observation for clinical signs, body weight, body weight gain, feed consumption, clinical chemistry, and gross pathology. The total animals per MTD was 36 mice.

hERG = target: T1, hERG (Homo sapiens, UniProt Q12809); experiment: hERG channel inhibition assay (QPatch HTX, HEK-293); assay type: cell-based; settings: human, HEK-293 cells that express hERG
T1 construct: expressed in transfected cells; host or cells: HEK-293
Description: (§1) To assess potential cardiotoxicity, we performed the human ether-go-go-related gene (hERG) inhibition assay. […] Briefly, EP was tested at six concentrations (cumulative concentration–response). […] For hepatotoxicity determination, we performed the microsomal CYP inhibition assay. Briefly, EP was incubated at seven increasing concentrations with pooled human liver microsomes. […] The supernatants were analyzed by LC-MS/MS.

hERG cardiac ion channel = target: T2, hERG cardiac ion channel (Homo sapiens, UniProt Q12809); experiment: as above; assay type: cell-based; settings: hERG tail-current; read-out: hERG pIC50 (converted)
T2 construct: expressed in transfected cells; host or cells: HEK-293
Description: as §1

CYP1A2 = target: T3, CYP1A2 (Homo sapiens, UniProt P05177); experiment: Microsomal CYP inhibition assay, CYP1A2; assay type: in vitro ADME; settings: pooled human liver microsomes, probe tacrine
T3 construct: from tissue; host or cells: pooled human liver microsomes
T3 sequence (P05177 1-516): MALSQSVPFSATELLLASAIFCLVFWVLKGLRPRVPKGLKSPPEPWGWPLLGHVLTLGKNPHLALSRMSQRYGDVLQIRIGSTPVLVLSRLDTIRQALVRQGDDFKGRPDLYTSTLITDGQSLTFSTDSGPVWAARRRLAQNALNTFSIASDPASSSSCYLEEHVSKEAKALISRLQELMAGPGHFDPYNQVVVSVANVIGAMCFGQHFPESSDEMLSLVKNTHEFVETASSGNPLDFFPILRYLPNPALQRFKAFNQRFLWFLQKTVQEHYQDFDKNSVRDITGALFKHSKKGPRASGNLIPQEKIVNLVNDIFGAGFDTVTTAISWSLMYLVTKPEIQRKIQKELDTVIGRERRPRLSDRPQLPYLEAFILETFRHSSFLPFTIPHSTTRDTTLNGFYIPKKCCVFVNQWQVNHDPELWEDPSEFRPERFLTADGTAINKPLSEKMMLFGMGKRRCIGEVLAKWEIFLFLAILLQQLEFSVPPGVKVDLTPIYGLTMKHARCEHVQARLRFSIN
Description: as §1

T1 sequence (Q12809 whole entry): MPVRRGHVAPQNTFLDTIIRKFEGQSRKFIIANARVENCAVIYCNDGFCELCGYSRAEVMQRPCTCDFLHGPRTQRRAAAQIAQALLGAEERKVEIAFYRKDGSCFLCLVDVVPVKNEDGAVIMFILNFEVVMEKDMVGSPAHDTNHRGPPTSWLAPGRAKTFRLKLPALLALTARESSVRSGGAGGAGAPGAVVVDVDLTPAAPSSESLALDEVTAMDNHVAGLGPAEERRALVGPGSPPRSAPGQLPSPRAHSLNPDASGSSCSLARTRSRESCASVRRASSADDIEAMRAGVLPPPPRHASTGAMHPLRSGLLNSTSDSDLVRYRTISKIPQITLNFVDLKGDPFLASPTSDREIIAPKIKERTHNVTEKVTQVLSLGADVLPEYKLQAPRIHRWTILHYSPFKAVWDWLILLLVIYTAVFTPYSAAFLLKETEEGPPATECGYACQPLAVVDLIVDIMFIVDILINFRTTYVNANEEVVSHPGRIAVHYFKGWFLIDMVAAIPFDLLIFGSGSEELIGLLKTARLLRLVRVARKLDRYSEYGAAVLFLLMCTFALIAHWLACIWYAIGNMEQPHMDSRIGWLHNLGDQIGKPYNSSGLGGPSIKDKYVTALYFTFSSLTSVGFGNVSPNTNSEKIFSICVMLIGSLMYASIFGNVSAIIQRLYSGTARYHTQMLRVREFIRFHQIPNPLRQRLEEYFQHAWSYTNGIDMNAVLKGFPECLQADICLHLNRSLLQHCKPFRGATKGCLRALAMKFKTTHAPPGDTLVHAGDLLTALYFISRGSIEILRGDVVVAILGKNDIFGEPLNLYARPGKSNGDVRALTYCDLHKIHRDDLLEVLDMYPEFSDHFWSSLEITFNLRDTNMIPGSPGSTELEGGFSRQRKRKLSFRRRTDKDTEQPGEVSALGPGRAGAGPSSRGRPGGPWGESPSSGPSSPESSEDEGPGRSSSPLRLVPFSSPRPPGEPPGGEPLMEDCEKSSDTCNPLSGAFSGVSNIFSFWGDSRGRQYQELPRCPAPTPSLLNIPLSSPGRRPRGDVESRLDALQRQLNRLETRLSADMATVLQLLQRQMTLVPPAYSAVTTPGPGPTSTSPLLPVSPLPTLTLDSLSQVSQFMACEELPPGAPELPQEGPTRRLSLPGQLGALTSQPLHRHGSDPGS
T2 sequence (Q12809 whole entry): as above

SMILES: CC(C)[C@@H](C)/C=C/[C@@H](C)[C@H]1CC[C@@H]2[C@]1(C)CC[C@H]1[C@]23C=C[C@]2(C[C@@H](O)CC[C@]12C)OO3 [Compound 2, Ergosterol peroxide]
- decrease in albumin vs vehicle control ([1]; 300 mg/kg (G2), male mice): 6%
- decrease in triglycerides vs vehicle control ([1]; 500 mg/kg (G3), male mice): 19%
- MTD at 7 days ([1]; both sexes, mouse, in vivo, single oral dose, male or female mice): > 500 mg/kg
- ALB, mean ([1]; female, 300 mg/kg): 3.08 g/dL
- ALP, mean ([1]; female, 300 mg/kg): 394.32 U/L
- ALT, mean ([1]; female, 300 mg/kg): 44.99 U/L
- AST, mean ([1]; female, 300 mg/kg): 88.20 U/L
- BUN, mean ([1]; female, 300 mg/kg): 16.45 mg/dL
- CREA, mean ([1]; female, 300 mg/kg): 0.21 mg/dL
- TGL, mean ([1]; female, 300 mg/kg): 38.15 mg/dL
- Gross pathology, External Abnormalities: No Abnormality Detected (number of mice) ([1]; female, 300 mg/kg): 6
- Body Weight, mean ([1]; female, 300 mg/kg, day 1): 21.05 g
- Food Consumption, Average Feed Intake/ Animal ([1]; female, 300 mg/kg, day 1 to 4): 12.3 g/Animal
- Body Weight, mean ([1]; female, 300 mg/kg, day 4): 21.15 g
- Food Consumption, Average Feed Intake/ Animal ([1]; female, 300 mg/kg, day 4 to 7): 12.2 g/Animal
- Body Weight, mean ([1]; female, 300 mg/kg, day 7): 21.45 g
- ALB, mean ([1]; female, 500 mg/kg): 3.03 g/dL
- ALP, mean ([1]; female, 500 mg/kg): 400.51 U/L
- ALT, mean ([1]; female, 500 mg/kg): 47.50 U/L
- AST, mean ([1]; female, 500 mg/kg): 75.14 U/L
- BUN, mean ([1]; female, 500 mg/kg): 17.63 mg/dL
- CREA, mean ([1]; female, 500 mg/kg): 0.20 mg/dL
- TGL, mean ([1]; female, 500 mg/kg): 30.51 mg/dL
- Gross pathology, External Abnormalities: No Abnormality Detected (number of mice) ([1]; female, 500 mg/kg): 6
- Body Weight, mean ([1]; female, 500 mg/kg, day 1): 21.27 g
- Food Consumption, Average Feed Intake/ Animal ([1]; female, 500 mg/kg, day 1 to 4): 12.3 g/Animal
- Body Weight, mean ([1]; female, 500 mg/kg, day 4): 21.17 g
- Food Consumption, Average Feed Intake/ Animal ([1]; female, 500 mg/kg, day 4 to 7): 11.8 g/Animal
- Body Weight, mean ([1]; female, 500 mg/kg, day 7): 21.53 g
- ALB, mean ([1]; male, 300 mg/kg): 2.91 g/dL
- ALP, mean ([1]; male, 300 mg/kg): 312.51 U/L
- ALT, mean ([1]; male, 300 mg/kg): 34.83 U/L
- AST, mean ([1]; male, 300 mg/kg): 47.80 U/L
- BUN, mean ([1]; male, 300 mg/kg): 16.45 mg/dL
- CREA, mean ([1]; male, 300 mg/kg): 0.17 mg/dL
- TGL, mean ([1]; male, 300 mg/kg): 51.23 mg/dL
- Gross pathology, External Abnormalities: No Abnormality Detected (number of mice) ([1]; male, 300 mg/kg): 6
- Gross pathology, Internal Abnormalities: No Abnormality Detected (number of mice) ([1]; male, 300 mg/kg): 6
- Body Weight, mean ([1]; male, 300 mg/kg, day 1): 21.85 g
- Food Consumption, Average Feed Intake/ Animal ([1]; male, 300 mg/kg, day 1 to 4): 14.9 g/Animal
- Body Weight, mean ([1]; male, 300 mg/kg, day 4): 22.28 g
- Food Consumption, Average Feed Intake/ Animal ([1]; male, 300 mg/kg, day 4 to 7): 14.6 g/Animal
- Body Weight, mean ([1]; male, 300 mg/kg, day 7): 23.03 g
- ALB, mean ([1]; male, 500 mg/kg): 3.03 g/dL
- ALP, mean ([1]; male, 500 mg/kg): 412.86 U/L
- ALT, mean ([1]; male, 500 mg/kg): 54.07 U/L
- AST, mean ([1]; male, 500 mg/kg): 91.50 U/L
- BUN, mean ([1]; male, 500 mg/kg): 17.06 mg/dL
- CREA, mean ([1]; male, 500 mg/kg): 0.17 mg/dL
- TGL, mean ([1]; male, 500 mg/kg): 46.91 mg/dL
- Gross pathology, External Abnormalities: No Abnormality Detected (number of mice) ([1]; male, 500 mg/kg): 6
- Gross pathology, Internal Abnormalities: No Abnormality Detected (number of mice) ([1]; male, 500 mg/kg): 6
- Body Weight, mean ([1]; male, 500 mg/kg, day 1): 22.62 g
- Food Consumption, Average Feed Intake/ Animal ([1]; male, 500 mg/kg, day 1 to 4): 10.4 g/Animal
- Body Weight, mean ([1]; male, 500 mg/kg, day 4): 22.70 g
- Food Consumption, Average Feed Intake/ Animal ([1]; male, 500 mg/kg, day 4 to 7): 13.7 g/Animal
- Body Weight, mean ([1]; male, 500 mg/kg, day 7): 22.27 g
- clinical signs ([1]; oral, 300 and 500 mg/kg, mice): no abnormal clinical signs
- inhibition at 0.1 µM (hERG; 0.1 μM, first addition): 1.99%
- inhibition at 0.3 µM (hERG; 0.3 μM, second addition): 2.99%
- inhibition at 1 µM (hERG; 1 μM, 3rd addition): 3.04%
- inhibition at 3 µM (hERG; 3 μM, fourth addition): 6.21%
- inhibition at 10 µM (hERG; 10 μM, fifth addition): 10.1%
- inhibition at 30 µM (hERG; 30 μM, sixth addition): 18.7%
- IC50 (hERG cardiac ion channel): > 30.2 µM
- IC50 (CYP1A2): 16.3 µM
